The test system of the assay is M. tuberculosis H37Rv growth inhibition, 7H9 media. In words: M. tuberculosis growth inhibition, HTS (AID 449762).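 As to all read-outs here: bacterial growth assessed after seven days of incubation.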 The settings on record: for IC90: measured here: IC90 growth inhibition.

SMILES strings stand for the structures. Inconclusive results are not listed.

As for `Nc1ccc(-c2nc3nc(N)nc(N)c3nc2-c2ccc(N)cc2)cc1`, the IC50 was 43 µM and the concentration for an effect of 90% (IC90) is 57.5 µM.
The like results for `c1ccc(-n2cnc3cc(NCc4cccs4)ccc32)cc1` were, in that order, 85.6 µM and 97.2 µM.
With `Cc1nc2ccccc2c2nc3ccccc3n12`, the IC50 was 33.8 µM and the IC90 amounted to 55.2 µM.
The like results for `COc1ccccc1C(=O)NC(=S)/C=C1/N(C)c2ccccc2C1(C)C` were, in that order, 34.4 µM and 43.9 µM.
The like results for `O=C(NCC1CC1)c1cc([N+](=O)[O-])cc([N+](=O)[O-])c1` were, in that order, 5.75 µM and 6.43 µM.
The like results for `CNC(CC(C)C)C(=O)NC1C(=O)NC(CC(N)=O)C(=O)NC2C(=O)NC3C(=O)NC(C(=O)NC(C(=O)O)c4cc(O)cc(O)c4-c4cc3ccc4O)C(O)c3ccc(c(Cl)c3)Oc3cc2cc(c3OC2OC(CO)C(O)C(O)C2OC2C[C@](C)(N)C(O)C(C)O2)Oc2ccc(cc2Cl)C1O` (some centres undefined) were, in that order, 1.01 µM and 4.42 µM.
On to `Cc1n[nH]c(=S)n1/N=C/c1cccc(OCc2ccccc2)c1`, for which the IC50 is 75.4 µM and the IC90 is over 100 µM.
Turning to `CC(C)(Oc1ccc(Cl)cc1)C(=O)OCC(=O)N1CCN(c2ccccc2)CC1`, the IC50 is 30.5 µM and the IC90 was 98.2 µM.
The like results for `CCOC(=O)N1CCC(N2Cc3cccc(C(=O)Nc4ccc(N(CC)CC)cc4C)c3C2=O)CC1` were, in that order, 45.1 µM and 50.5 µM.
The like results for `Cc1ccc(O)c(C(=O)CC(=O)c2ccccc2Cl)c1` were, in that order, 10.7 µM and 40.1 µM.
Turning to `CCOC(=O)N1CCC(n2c(SCC(=O)OCc3ccccc3)nc3ccsc3c2=O)CC1`, the IC50 was 27.1 µM and the IC90 was over 100 µM.
The like results for `CC1CN(c2ccc([N+](=O)[O-])c(NCCOc3ccc(Cl)cc3)c2)CC(C)N1` (centres undefined) were, in that order, 9.19 µM and 12.8 µM.
The like results for `O=[N+]([O-])c1cc(-c2ncccn2)c([N+](=O)[O-])s1` were, in that order, 12.9 µM and 32.5 µM.
The like results for `CCOC(=O)c1c(C)n(-c2ccc(C)cc2)c2ccc(OCC(O)CNCC3CCCO3)cc12` (centres undefined) were, in that order, 22.7 µM and 31 µM.
For `CCCCNC(=S)N(C)/N=C/c1ccc2c(c1)OCO2`, the IC50 is 12.2 µM and the IC90 is 20.4 µM.
As for `Cc1ccc(C(C)C)c(OCC(=O)OCc2c(C)noc2C)c1`, the 50% inhibitory concentration (IC50) is 2.86 µM and the IC90 was 3.29 µM.
The like results for `COc1ccc(-c2nnn(CC(=O)OC3CCCCC3)n2)cc1OC` were, in that order, 5.71 µM and 62.7 µM.
The like results for `COc1ccc(Cc2nc3ccc(C(=O)NCCCSC)cc3o2)cc1OC` were, in that order, 41.1 µM and over 100 µM.
The like results for `NN(Cc1ccccc1)C(=S)Nc1ccc(Cl)c(Cl)c1` were, in that order, 33.8 µM and 58.1 µM.
Turning to `COc1cc(N=Nc2ccc3ccccc3c2)ccc1O`, the IC50 was 37.8 µM and the 90% effect concentration (IC90) turned out to be 63.1 µM.
The like results for `Cc1ccc(NC(=O)COC(=O)CCc2c[nH]c3ccccc23)cc1[N+](=O)[O-]` were, in that order, 0.68 µM and 4.74 µM.
The like results for `O=C(Nc1nnc(-c2ccccc2Cl)o1)c1nc2ccccc2s1` were, in that order, 6.01 µM and 6.78 µM.
The like results for `CCSc1ccc2c(c1)N(CCCN1CCN(C)CC1)c1ccccc1S2` were, in that order, 19.1 µM and 26.5 µM.
In the case of `O=c1[nH]c(=O)n(C2CCCO2)cc1F` (centres undefined), the IC50 was 29 µM and the IC90 was determined as 55.3 µM.
The like results for `Cc1cccc(N2CCN(CC(=O)Nc3nccs3)CC2)c1C` were, in that order, 16 µM and 58.5 µM.
The like results for `O=C(Cn1ncc(Cl)c(Cl)c1=O)c1ccc2c(c1)OCCO2` were, in that order, 6.83 µM and 12.2 µM.
The like results for `Cc1ccc(-c2csc(N3CCN(CCCn4c(-c5ccncc5)nc5ccccc54)CC3)n2)cc1` were, in that order, 23.4 µM and 26.5 µM.

The values are drawn from PubChem BioAssay AID449762 (Southern Research Specialized Biocontainment Screening …, 2010).
